Values quoted from earlier work in patent publication US5972946A, “Acetamide derivative, process for preparing the same, and a pharmaceutical composition containing the same” (Dainippon Pharmaceutical Co., Ltd., priority 1995, dated 1999).

Test system: Bacillus subtilis
Details: Pharmazie, 43, 537-538 (1988); cited from earlier work

In the case of `CC(=O)c1c(C)nc(-c2ccccc2)nc1SCC(=O)Nc1ccc(Cl)cc1` [2-(5-acetyl-6-methyl-2-phenyl-4-pyrimidinylthio)-N-(4-chlorophenyl)acetamide], the “antibacterial activity against Bacillus subtilis” value is given as “shows antibacterial activity against Bacillus subtilis”.
